Data set [1] is described as follows: FRAP (ferric reducing antioxidant power) assay. How it is done:
(§1) The FRAP (ferric reducing antioxidant power) assay was carried out as described by Zengin et al.[38]. The sample solution (0.1 ml) was added to the premixed FRAP reagent (2 ml) containing acetate buffer (0.3 M, pH 3.6), 2,4,6-tris(2-pyridyl)-s-triazine (10 mM) in 40 mM HCl, and ferric chloride (20 mM) in a ratio of 10/1/1 (v/v/v). The absorbance of the sample was subsequently recorded at 593 nm after 30 min incubation at room temperature. Both results were expressed as EC50 values, using trolox as a reference drug.

Data set [2] can be described thus: Cupric ion reducing activity (CUPRAC). How it is done: The cupric ion reducing activity (CUPRAC) was determined according to the method of Zengin et al.[38]. The sample solution (0.5 ml) was added to a premixed reaction mixture containing CuCl2 (1 ml, 10 mM), neocuproine (1 ml, 7.5 mM), and NH4Ac buffer (1 ml, 1 M, pH 7.0). Similarly, a blank was prepared by adding the sample solution (0.5 ml) to a premixed reaction mixture (3 ml) without CuCl2. The absorbances of the sample and blank were subsequently recorded at 450 nm after 30 min incubation at room temperature. The absorbance of the blank was subtracted from that of the sample.
as §1

A short description of data set [3]: DPPH radical scavenging activity. On the procedure: The radical scavenging effect of the compounds using the 1,1-diphenyl-2-picrylhydrazyl (DPPH) radical was estimated according to Zengin et al.[36]. The sample solution (1 ml) was added to 4 ml of a 0.004% solution of DPPH in methanol. The sample absorbance was recorded at 517 nm after 30 min incubation at room temperature in the dark.
(§2) The scavenging activity of the compounds on the ABTS radical cation [ABTS,2,2′-azino-bis(3-ethylbenzothiazoline)-6-sulphonic acid] was measured according to the method of Zengin et al.[37] with slight modification. Briefly, ABTS^+ was produced directly by reacting a 7 mM ABTS solution with 2.45 mM potassium persulphate and allowing the mixture to incubate for 12–16 h in the dark at room temperature. Prior to initiating the assay, the ABTS solution was diluted with methanol to an absorbance of 0.700 ± 0.02 at 734 nm. The sample solution (1 ml) was added to the ABTS^+ solution (2 ml) and mixed, and the sample absorbance was recorded at 734 nm after 30 min incubation at room temperature. The corresponding IC50 value, which is the effective concentration at which 50% of DPPH/ABTS radicals are scavenged, was calculated for each compound and trolox, as a reference drug.

A short description of data set [4]: ABTS radical cation scavenging activity. How it is done:
as §2

The nature of data set [5]: Phosphomolybdenum assay (PhosphoMo), total antioxidant activity. The conditions noted are these: concentration at which absorbance was 0.5. How it is done:
The total antioxidant activity of the compounds was evaluated by phosphomolybdenum method according to Zengin et al.[35]. The sample solution (0.3 ml) was combined with 3 ml of reagent solution (0.6 M sulphuric acid, 28 mM sodium phosphate, and 4 mM ammonium molybdate) and the absorbance was recorded at 695 nm after 90 min incubation at 95 °C. The EC50, which is the effective concentration at which the absorbance was 0.5, was calculated for each compound and trolox, as a reference drug.

A short description of data set [6]: Metal chelating activity on ferrous ions. Particulars: ferrozine. On the procedure: Metal chelating activity on ferrous ions was evaluated by the method previously described. Briefly, the sample solution (2 ml) was added to FeCl2 solution (0.05 ml, 2 mM). The reaction was initiated by the addition of 5 mM ferrozine (0.2 ml). Similarly, a blank was prepared by adding the sample solution (2 ml) to FeCl2 solution (0.05 ml, 2 mM) and water (0.2 ml) without ferrozine. Then, the sample and blank absorbance were recorded at 562 nm after incubation for 10 min at room temperature. The absorbance of the blank was subtracted from that of the sample. EDTA was used as a positive control and this property was expressed as IC50 value for each compound.

`CCC(=NNc1nc(-c2cccc([N+](=O)[O-])c2)cs1)c1ccccc1` came in with a melting point of 215 to 217 °C.

With `CC(=NNc1nc(-c2cccc([N+](=O)[O-])c2)cs1)c1cccc([N+](=O)[O-])c1`, the melting point was 214 to 216 °C.

With `CC(=NNc1nc(-c2cccc([N+](=O)[O-])c2)cs1)c1ccc([N+](=O)[O-])cc1`, the melting point was in the range of 258 to 260 °C.

Molecule `O=[N+]([O-])c1cccc(-c2csc(NN=Cc3c[nH]c4ccccc34)n2)c1` came in with a melting point of 253 to 255 °C.

As for `CC(=NNc1nc(-c2cccc([N+](=O)[O-])c2)cs1)c1c[nH]c2ccccc12`, the melting point was 209 to 211 °C.

For the molecule `O=[N+]([O-])c1cccc(-c2csc(NN=Cc3ccc4c(c3)OCO4)n2)c1`, the melting point was 255 to 256 °C.

Consider `CC(=NNc1nc(-c2cccc([N+](=O)[O-])c2)cs1)c1cc2ccccc2o1`, for which the melting point is 228 to 230 °C.

For `CC(=NNc1nc(-c2cccc([N+](=O)[O-])c2)cs1)c1ccc2c(c1)OCCO2`, the melting point was 242 to 244 °C.

For the molecule `CC(=NNc1nc(-c2cccc([N+](=O)[O-])c2)cs1)c1ccc2ccccc2c1`, the melting point fell in the range of 152 to 154 °C.

`O=[N+]([O-])c1cccc(-c2csc(NN=C(c3ccccc3)c3ccccc3)n2)c1` returned a melting point of 166 to 168 °C.

On to `CC(=NNc1nc(-c2cccc([N+](=O)[O-])c2)cs1)c1cc2ccccc2oc1=O`, for which the melting point fell in the range of 183 to 185 °C.

As for `CC(=NNc1nc(-c2cccc([N+](=O)[O-])c2)cs1)c1ccc(C(C)=NNc2nc(-c3cccc([N+](=O)[O-])c3)cs2)cc1`, the melting point lay within 283 to 285 °C.

The molecule `O=[N+]([O-])c1cccc(C=NNc2nc(-c3cccc([N+](=O)[O-])c3)cs2)c1` gave a melting point of 222 to 224 °C.

`CC(=NNc1nc(-c2cccc([N+](=O)[O-])c2)cs1)c1ccc(Cl)s1` [Compound 6, 1-(1-(5-Chlorothiophen-2-yl)ethylidene)-2-(4-(3-nitrophenyl)thiazol-2-yl)hydrazine] gave a melting point of 227 to 229 °C. In data set [1], the EC50 was 620 ± 70 µM. Besides, the EC50 in data set [2] came to 490 ± 10 µM. This molecule came in with an IC50 in data set [3] of 1180 ± 10 µM. This molecule came in with a half-inhibitory concentration (IC50) in data set [4] of 1080 ± 10 µM. The molecule also showed an EC50 in data set [5] of 1250 ± 50 µM. This molecule displayed an IC50 in data set [6] of over 5000 µM.

`O=[N+]([O-])c1cccc(-c2csc(NN=Cc3ccccc3)n2)c1` [Compound 7, 1-Benzylidene-2-(4-(3-nitrophenyl)thiazol-2-yl)hydrazine] had a melting point of 193 to 195 °C. Moreover, the EC50 in data set [1] was determined as 660 ± 40 µM. This molecule also came in with an EC50 in data set [2] of 660 ± 10 µM. The molecule further showed a concentration for half-maximal inhibition (IC50) in data set [3] of 1380 ± 10 µM. The IC50 in data set [4] stood at 1040 ± 10 µM. This molecule also registered a 50% effective concentration (EC50) in data set [5] of 1290 ± 160 µM. For the same molecule, in data set [6], the IC50 is over 5000 µM.

As for `O=[N+]([O-])c1cccc(-c2csc(NN=Cc3ccccc3[N+](=O)[O-])n2)c1` [Compound 8, 1-(2-Nitrobenzylidene)-2-(4-(3-nitrophenyl)thiazol-2-yl)hydrazine], the melting point lay in the range of 228 to 230 °C. In data set [1], the half-maximal effective concentration (EC50) was found to be 470 ± 40 µM. In data set [2], this molecule had a half-maximal effective concentration (EC50) of 440 ± 20 µM. The molecule also came in with a half-maximal inhibitory concentration (IC50) in data set [3] of 1470 ± 10 µM. This molecule also showed a half-maximal inhibitory concentration (IC50) in data set [4] of 1040 ± 10 µM. The molecule also displayed an EC50 in data set [5] of 1700 ± 50 µM. Also, the half-inhibitory concentration (IC50) in data set [6] is over 5000 µM.

With `O=[N+]([O-])c1cccc(-c2csc(NN=Cc3ccccn3)n2)c1` [Compound 16, 1-(4-(3-Nitrophenyl)thiazol-2-yl)-2-(pyridin-2-ylmethylene)hydrazine], the EC50 in data set [1] is 510 ± 20 µM; in data set [2], 530 ± 20 µM; in data set [5] it was 1130 ± 10 µM. Moreover, the IC50 in data set [3] was 1320 ± 10 µM; in data set [4], 1060 ± 20 µM; in data set [6], over 5000 µM.

On to `O=[N+]([O-])c1cccc(-c2csc(NN=Cc3ccncc3)n2)c1` [Compound 18, 1-(4-(3-Nitrophenyl)thiazol-2-yl)-2-(pyridin-4-ylmethylene)hydrazine], for which the values for the half-maximal effective concentration (EC50) in data set [1], in data set [2] and in data set [5] were 350 ± 10 µM, 580 ± 10 µM and 4700 ± 970 µM, respectively. The concentration for half-maximal inhibition (IC50) was 1370 ± 10 µM in data set [3], 1040 ± 10 µM in data set [4] and over 5000 µM in data set [6].

Turning to `CC(=NNc1nc(-c2cccc([N+](=O)[O-])c2)cs1)c1ccccn1` [Compound 19, 1-(4-(3-Nitrophenyl)thiazol-2-yl)-2-(1-(pyridin-2-yl)ethylidene)hydrazine], the concentration for a half-maximal effect (EC50) was found to be 380 ± 20 µM in data set [1], 510 ± 10 µM in data set [2] and 2640 ± 340 µM in data set [5]. Moreover, the IC50 in data set [3] was 1360 ± 10 µM; in data set [4] it was 1040 ± 10 µM; in data set [6] it was over 5000 µM.

As to `CC(=NNc1nc(-c2cccc([N+](=O)[O-])c2)cs1)c1cccnc1` [Compound 20, 1-(4-(3-Nitrophenyl)thiazol-2-yl)-2-(1-(pyridin-3-yl)ethylidene)hydrazine], the values for the EC50 in data set [1], in data set [2] and in data set [5] were 320 ± 20 µM, 420 ± 20 µM and 1770 ± 70 µM, respectively. Moreover, the results for the IC50 in data set [3], in data set [4] and in data set [6] were 1290 ± 10 µM, 1040 ± 10 µM and over 5000 µM, respectively.

For the molecule `CC(=NNc1nc(-c2cccc([N+](=O)[O-])c2)cs1)c1ccncc1` [Compound 21, 1-(4-(3-Nitrophenyl)thiazol-2-yl)-2-(1-(pyridin-4-yl)ethylidene)hydrazine], the results for the EC50 in data set [1], in data set [2] and in data set [5] were 270 ± 10 µM, 460 ± 20 µM and 4480 ± 180 µM, respectively. For the same molecule, the IC50 in data set [3] is 1340 ± 20 µM; in data set [4] it was 1040 ± 10 µM; in data set [6], over 5000 µM.

`CC(=NNc1nc(-c2cccc([N+](=O)[O-])c2)cs1)c1cnccn1` [Compound 22, 1-(4-(3-Nitrophenyl)thiazol-2-yl)-2-(1-(pyrazin-2-yl)ethylidene)hydrazine] gave a melting point of 243 to 245 °C. It took 480 ± 40 µM to reach a half-maximal effect in data set [1] (EC50). In data set [2], this molecule gave an EC50 of 910 ± 20 µM. In addition, it took 1340 ± 10 µM to reach half-maximal inhibition in data set [3] (IC50). In addition, inhibition in data set [4] was half-maximal at 1040 ± 10 µM (IC50). In data set [5], the response was half-maximal at 1280 ± 30 µM (EC50). Half-maximal inhibition in data set [6] (IC50) was put at 3860 ± 290 µM.

For the molecule `O=[N+]([O-])c1cccc(-c2csc(NN=Cc3cccc4ccccc34)n2)c1` [Compound 28, 1-(Naphthalen-1-ylmethylene)-2-(4-(3-nitrophenyl)thiazol-2-yl)hydrazine], the melting point was 212 to 214 °C. This molecule also returned a concentration for a half-maximal effect (EC50) in data set [1] of 410 ± 10 µM. Besides, a half-maximal effect in data set [2] (EC50) was put at 510 ± 30 µM. This molecule registered an IC50 in data set [3] of 1300 ± 10 µM. For the same molecule, 1050 ± 10 µM corresponded to half-maximal inhibition in data set [4] (IC50). In addition, the EC50 in data set [5] was 4930 ± 830 µM. This molecule also had an IC50 in data set [6] of over 5000 µM.

Molecule `CC(=NNc1nc(-c2cccc([N+](=O)[O-])c2)cs1)c1cccc2ccccc12` [Compound 29, 1-(1-(Naphthalen-1-yl)ethylidene)-2-(4-(3-nitrophenyl)thiazol-2-yl)hydrazine] showed a melting point of 226 to 228 °C. In addition, the response in data set [1] was half-maximal at 530 ± 20 µM (EC50). The molecule also returned an EC50 in data set [2] of 460 ± 10 µM. Also, the half-maximal inhibitory concentration (IC50) in data set [3] was 1420 ± 10 µM. In addition, the midpoint of inhibition in data set [4], the IC50, lay at 1040 ± 10 µM. Further, in data set [5], the midpoint of the response, the EC50, lay at 9390 ± 310 µM. The concentration for half-maximal inhibition (IC50) in data set [6] is over 5000 µM.

As for `O=C(O)CN(CCN(CC(=O)O)CC(=O)O)CC(=O)O` [EDTA, reference compound], half-maximal inhibition in data set [6] (IC50) required 20 ± 1 µM.

For `Cc1c(C)c2c(c(C)c1O)CCC(C)(C(=O)O)O2` (stereo not shown) [Trolox, trolox, reference compound], the EC50 is 160 ± 10 µM in data set [1], 240 ± 20 µM in data set [2] and 1130 ± 50 µM in data set [5]. For the same molecule, the half-inhibitory concentration (IC50) in data set [3] turned out to be 400 ± 10 µM; in data set [4] it was 660 ± 20 µM.

In general, melting point refers to the temperature, or range, at which the solid turns liquid. As usually defined, the EC50 is the concentration needed to bring the measured effect to its halfway point. A low value points to greater potency. What is called IC50 is the midpoint of a concentration-inhibition curve. A high value points to weaker potency in that assay.

The values are drawn from publication PMC6366404, “4-(3-Nitrophenyl)thiazol-2-ylhydrazone derivatives as antioxidants and selective hMAO-B inhibitors: synthesis, biological activity and computational analysis” (Journal of Enzyme Inhibition and Medicinal Chemistry, 2019).
